Broadly, the pEC50 is the EC50 on a negative log10 scale, so that one unit is a factor of ten. Read a high pEC50 as a low EC50.

Among the data in US20170158702A1, “MULTIVALENT RAS BINDING COMPOUNDS” (KYRAS THERAPEUTICS, INC., priority 2015, published 2017) are EC50 values, retold here.

Type in all cases: cell-based
In assay [1] the test system is NCI-H460. Briefly: Viability assay with NCI-H460 (CellTiter-Glo cytotoxicity assay, 72 h). The conditions noted are these: NCI-H460 cell line, 72 h after compounds addition. The gist of the method: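 NCI-H460 cells, RPMI 1640 + 10% FBS, seeded 1200/well and adhered overnight, then exposed to compounds at 9 points, 2-fold dilution, in triplicate, 0.5% DMSO final. Cellular ATP measured by CellTiter-Glo luminescence 72 h after addition.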

For assay [2], the system named is MIA PaCa-2. The assay is described as follows: Viability assay with MIA PaCa-2. Conditions: MIA PaCa-2, viability assay per Example 57. The gist of the method:
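MIA PaCa-2 cells were seeded at 1200/well, allowed to adhere overnight, then treated in triplicate with 9-point 2-fold compound dilutions at 0.5% final DMSO. Viability was measured as cellular ATP by CellTiter-Glo luminescence 72 h after compound addition.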

Assay [3] deals with HT-29. Briefly: Viability assay with HT-29. The conditions noted are these: HT-29, viability assay per Example 57. Here is the method:
NCI-H460 (Epithelial lung tissue; carcinoma; large cell lung cancer) were cultured in RPMI Medium 1640 (Invitrogen-22400105) supplemented with 10% fetal bovine serum (FBS; Invitrogen-10099141). All the cell lines were maintained in a humidified incubator at 37° C. with 5% CO2. Cell culture media and supplements were purchased from Invitrogen, and tissue culture flasks were purchased from Corning, 96-well plates were purchased from Greiner. CellTiter-Glo Luminescent Cell Viability Assay kits were purchased from Promega (Promega-G7573), cells counter Vi-Cell was purchased from Beckman, D300e digital dispenser was purchased from Tecan, detection instrument Envision was purchased from PerkinElmer.
Paclitaxel was purchased from SELLECK, test compounds, such as any one of the compounds disclosed herein, attained solubility in DMSO and when diluted into culture media. DMSO, solutions containing the test compounds, and culture media were warmed to 37° C. or room temperature for the solution preparation and dilutions.
NCI-H460 Cell line were seeded in 96-well plates (1200/well) and allowed to adhere to overnight (100 uL/well), for drug treatments with 2 fold dilution, 9 dose points, triplicates or vehicle control, compound stock solutions were prepared in DMSO and use D300e digital dispenser to add compounds to the wells to give the indicated final drug concentrations. Final DMSO concentration was 0.5%. Cellular ATP concentrations were assessed by using the CellTiter-Glo Cell Viability Assay as per the manufacturer's instructions 72 h after compounds addition. Additional cells lines were assayed with any one of the compounds disclosed herein according to the procedures described for the viability assay with NCI-H460.
A viability assay with HT-29 (Colorectal adenocarcinoma) was performed with compounds listed in Table 18 according to the procedures described in Example 57.

Each structure is given as a SMILES string. pEC50: −log10 of the molar value. Structures can show the parent of a compound that is named as a salt. Some results are limits rather than exact numbers.

Take `Nc1ccc(Cn2cc(-c3ccc(OC(F)(F)F)cc3)c3cc(CN4CCN(Cc5ccccc5Cl)CC4)ccc32)cc1` [C220; Formic Acid]: the pEC50 in assay [1], in assay [2] and in assay [3] was 5.00 to 5.30 each time.
With `NCCCn1cc(-c2ccc(OC(F)(F)F)cc2CN)c2cc(CN3CCC(Cc4ccccc4Cl)CC3)ccc21` [C221; HCl], the pEC50 in assay [1], in assay [2] and in assay [3] was at least 5.30 in each case.
Turning to `COc1ccc(-c2cn(CCCN)c3ccc(CN4CCN(Cc5ccccc5Cl)CC4)cc23)c(CN)c1` [C222; HCl], the pEC50 in assay [1], in assay [2] and in assay [3] was at least 5.30 throughout.
For the compound `Cc1ccc(-c2cn(CCCN)c3ccc(CN4CCN(Cc5ccccc5Cl)CC4)cc23)c(CN)c1` [C223; HCl], the pEC50 in assay [1], in assay [2] and in assay [3] was at least 5.30 throughout.
With `NCc1ccc(Cn2cc(-c3ccc(OC(F)(F)F)cc3)c3cc(CN4CCN(Cc5ccccc5Cl)CC4)ccc32)cn1` [C224; Formic Acid], the pEC50 in assay [1], in assay [2] and in assay [3] was at least 5.30 in each case.
Turning to `FC(F)(F)Oc1ccc(-c2cn(C3CCNCC3)c3ccc(CN4CCC(Cc5ccccc5Cl)CC4)cc23)cc1` [C225; HCl], the pEC50 in assay [1], in assay [2] and in assay [3] was at least 5.30 in each case.
Regarding `CCC1CCN(Cc2ccc3c(c2)c(-c2ccc(OC(F)(F)F)cc2)cn3CCCN)CC1` [C226; HCl], the pEC50 in assay [1], in assay [2] and in assay [3] was at least 5.30 each time.
`CCCCn1cc(-c2ccc(OC(F)(F)F)cc2CN)c2cc(CN3CCN(Cc4ccccc4Cl)CC3)ccc21` [C227; HCl]: the pEC50 in assay [1], in assay [2] and in assay [3] was at least 5.30 in each case.
With `FC(F)(F)Oc1ccc(-c2cn(CC3CCNCC3)c3ccc(CN4CCC(Cc5ccccc5Cl)CC4)cc23)cc1` [C228; HCl], the negative-log EC50 (pEC50) in assay [1], in assay [2] and in assay [3] was at least 5.30 throughout.
As for `NCc1cc(-n2cc(-c3ccc(OC(F)(F)F)cc3)c3cc(CN4CCN(Cc5ccccc5Cl)CC4)ccc32)ccn1` [C229; Formic Acid], the negative-log EC50 (pEC50) in assay [1], in assay [2] and in assay [3] was at least 5.30 each time.
For `FC(F)(F)Oc1ccc(-c2cn(CC3CCCNC3)c3ccc(CN4CCN(Cc5ccccc5Cl)CC4)cc23)cc1` (stereo not drawn) [C230; HCl], the pEC50 in assay [1], in assay [2] and in assay [3] was at least 5.30 in each case.
As to `FC(F)(F)Oc1ccc(-c2cn(CC3CNCCO3)c3ccc(CN4CCN(Cc5ccccc5Cl)CC4)cc23)cc1` (stereo not drawn) [C231; HCl], the pEC50 in assay [1], in assay [2] and in assay [3] was at least 5.30 in each case.
For the compound `Nc1ccc(Cn2cc(-c3ccc(OC(F)(F)F)cc3)c3cc(CN4CCN(Cc5ccccc5Cl)CC4)ccc32)cn1` [C232; Formic Acid], the negative logarithm of the EC50 (pEC50) in assay [1], in assay [2] and in assay [3] was at least 5.30 each time.
For the compound `NCCCn1cc(-c2ccc(OC(F)(F)F)cc2)c2cc(CN3CCC(NCC(F)(F)F)CC3)ccc21` [C233; HCl], the values for the pEC50 in assay [1], in assay [2] and in assay [3] were at least 5.30, 5.00 to 5.30 and 5.00 to 5.30, respectively.
In the case of `NCCc1cccc(-n2cc(-c3ccc(OC(F)(F)F)cc3)c3cc(CN4CCN(Cc5ccccc5Cl)CC4)ccc32)c1` [C235; Formic Acid], the pEC50 in assay [1], in assay [2] and in assay [3] was at least 5.30 in each case.
As to `NCCCn1cc(-c2ccc(OC(F)(F)F)cc2)c2cc(CN3CCC(Oc4cccc(Cl)c4)CC3)ccc21` [C236; HCl], the pEC50 in assay [1], in assay [2] and in assay [3] was at least 5.30 in each case.
As for `NCc1cc(OC(F)(F)F)ccc1-c1cn(CC2CCNCC2)c2ccc(CN3CCN(Cc4ccccc4Cl)CC3)cc12` [C237; HCl], the negative-log EC50 (pEC50) in assay [1], in assay [2] and in assay [3] was at least 5.30 throughout.
As for `CNCc1cc(OC(F)(F)F)ccc1-c1cn(CCCN)c2ccc(CN3CCN(Cc4ccccc4Cl)CC3)cc12` [C238; HCl], the negative logarithm of the EC50 (pEC50) in assay [1], in assay [2] and in assay [3] was at least 5.30 throughout.
For the compound `NCCCn1cc(-c2ccc(OC(F)(F)F)cc2N)c2cc(CN3CCN(Cc4ccccc4Cl)CC3)ccc21` [C239; Formic Acid], the pEC50 in assay [1], in assay [2] and in assay [3] was at least 5.30 throughout.
For `COc1cc(CN2CCN(S(=O)(=O)c3ccc4c(c3)c(-c3ccc(OC(F)(F)F)cc3CN)cn4CCCN)CC2)cc(OC)c1` [C240; Formic Acid], the pEC50 in assay [1], in assay [2] and in assay [3] was at least 5.30 throughout.
Regarding `NCCCn1cc(-c2ccc(OC(F)(F)F)cc2CN)c2cc(CN3CCC(Nc4ccccc4Cl)CC3)ccc21` [C241; HCl], the pEC50 in assay [1], in assay [2] and in assay [3] was at least 5.30 in each case.
Consider `NCCCn1cc(-c2ccc(OC(F)(F)F)cc2)c2cc(OC3CCN(Cc4ccccc4Cl)CC3)ccc21` [C242; HCl], for which the pEC50 in assay [1], in assay [2] and in assay [3] was 5.00 to 5.30 throughout.
For the compound `NCCCn1cc(-c2ccc(OC(F)(F)F)cc2CN)c2cc(S(=O)(=O)N3CCN(Cc4ccccc4Cl)CC3)ccc21` [C245; Formic Acid], the pEC50 in assay [1], in assay [2] and in assay [3] was at least 5.30 in each case.
`NCCCn1cc(-c2ccc(OC(F)(F)F)cc2)c2cc(Nc3ccc(Nc4ccccc4Cl)nc3)ccc21` [C246; Formic Acid]: the pEC50 in assay [1] was 5.00 to 5.30; in assay [2], 5.00 to 5.30; in assay [3], 4.52 to 5.00.
As to `NCCCn1cc(-c2ccc(OC(F)(F)F)cc2CN)c2cc(CN3CCC(Nc4cccc(Cl)c4)CC3)ccc21` [C247; HCl], the pEC50 in assay [1], in assay [2] and in assay [3] was at least 5.30 each time.
Consider `NCCCn1cc(-c2ccc(OC(F)(F)F)cc2CN)c2cc(CN3CCC4(CC3)CCN(Cc3ccccc3Cl)C4)ccc21` [C249; Formic Acid], for which the pEC50 in assay [1], in assay [2] and in assay [3] was at least 5.30 in each case.
`NCCCn1cc(-c2ccc(OC(F)(F)F)cc2CN)c2cc(CN3CCC4(CCN(Cc5ccccc5Cl)CC4)C3)ccc21` [C250; HCl]: the pEC50 in assay [1], in assay [2] and in assay [3] was at least 5.30 throughout.
Turning to `CC(C)(N)CCCn1cc(-c2ccc(OC(F)(F)F)cc2CN)c2cc(CN3CCN(Cc4ccccc4Cl)CC3)ccc21` [C251; HCl], the pEC50 in assay [1], in assay [2] and in assay [3] was at least 5.30 throughout.
For the compound `NCCCn1cc(-c2ccc(OC(F)(F)F)cc2CN)c2cc(CN3CCC(CC(F)(F)F)CC3)ccc21` [C252; HCl], the pEC50 in assay [1], in assay [2] and in assay [3] was at least 5.30 in each case.
Consider `NCCCn1cc(-c2ccc(OC(F)(F)F)cc2CN)c2cc(CN3CCC4(CCCN(Cc5ccccc5Cl)C4)CC3)ccc21` [C253; HCl], for which the pEC50 in assay [1], in assay [2] and in assay [3] was at least 5.30 throughout.
As for `NCc1cc(OC(F)(F)F)ccc1-c1cn(C2CCNCC2)c2ccc(CN3CCN(Cc4ccccc4Cl)CC3)cc12` [C254; HCl], the pEC50 in assay [1], in assay [2] and in assay [3] was at least 5.30 in each case.
As for `CCC1CCN(Cc2ccc3c(c2)c(-c2ccc(OC)cc2CN)cn3CCCN)CC1` [C255; HCl], the results for the pEC50 in assay [1], in assay [2] and in assay [3] were 5.00 to 5.30, at least 5.30 and 5.00 to 5.30, respectively.
For `CCC1CCN(Cc2ccc3c(c2)c(-c2ccc(C)cc2CN)cn3CCCN)CC1` [C256; HCl], the pEC50 in assay [1], in assay [2] and in assay [3] was 5.00 to 5.30 in each case.
`CC1CCN(Cc2ccc3c(c2)c(-c2ccc(OC(F)(F)F)cc2CN)cn3CCCN)CC1` [C257; HCl]: the pEC50 in assay [1], in assay [2] and in assay [3] was at least 5.30 each time.
`NCCCn1cc(-c2ccc(OC(F)(F)F)cc2CN)c2cc(CN3CCNC(=O)C3)ccc21` [C258; Formic Acid]: the negative logarithm of the EC50 (pEC50) in assay [1], in assay [2] and in assay [3] was 5.00 to 5.30 in each case.
As for `NCCCn1cc(-c2ccc(OC(F)(F)F)cc2CN)c2cc(CN3CCCC(N)C3)ccc21` (stereo not drawn) [C259; HCl], the pEC50 in assay [1], in assay [2] and in assay [3] was 5.00 to 5.30 throughout.
For `NCCCn1cc(-c2ccc(OC(F)(F)F)cc2CN)c2cc(CN3CCCCC3)ccc21` [C260; HCl], the pEC50 in assay [1] is 5.00 to 5.30; in assay [2], at least 5.30; in assay [3], 5.00 to 5.30.
